How the values were obtained:
Assay in all cases: NCI 60 cell panel SRB screen
Type in all cases: cell-based
UACC-257 = settings: Homo sapiens; for activity at 10 µM: UACC-257, read-out: percent cell growth promotion
SF-295 = settings: Homo sapiens; for activity at 10 µM: SF-295, single dose 10 μM, read-out: percent cell growth promotion
A498 = settings: Homo sapiens; for activity at 10 µM: A498, single dose 10 μM, read-out: percent cell growth promotion
HOP-62 = settings: Homo sapiens; for activity at 10 µM: HOP-62, single dose 10 μM, read-out: percent cell growth promotion
HCT-116 = settings: Homo sapiens; for activity at 10 µM: HCT-116, single dose 10 μM, read-out: percent cell growth promotion
OVCAR-5 = settings: Homo sapiens; for activity at 10 µM: OVCAR-5, single dose 10 μM, read-out: percent cell growth promotion
MDA-MB-468 = settings: Homo sapiens; for activity at 10 µM: MDA-MB-468, MDA-MBA-468, single dose 10 μM, read-out: percent cell growth promotion
Method in brief: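 Cells in RPMI 1640 with 5% FBS, preincubated 24 h, then exposed to five concentrations for 48 h at 37 °C. TCA fixation, SRB staining, absorbance at 515 nm; a time-zero plate allows GI50 (50% reduction in net protein gain), TGI and LC50 (50% loss versus start).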

COLO 205 = settings: Homo sapiens; for activity at 10 µM: COLO 205, single dose 10 μM, read-out: percent cell growth promotion
SF-268 = settings: Homo sapiens; for activity at 10 µM: SF-268, single dose 10 μM, read-out: percent cell growth promotion
SK-OV-3 = settings: Homo sapiens; for activity at 10 µM: SK-OV-3, single dose 10 μM, read-out: percent cell growth promotion
MOLT-4 = settings: Homo sapiens; for activity at 10 µM: MOLT-4, single dose 10 μM, read-out: percent cell growth promotion
K-562 = settings: Homo sapiens, K562; for activity at 10 µM: K-562, single dose 10 μM, read-out: percent cell growth promotion
NCI-H23 = settings: Homo sapiens; for activity at 10 µM: NCI-H23, single dose 10 μM, read-out: percent cell growth promotion
NCI/ADR-RES = settings: Homo sapiens; for activity at 10 µM: single dose 10 μM, read-out: percent cell growth promotion
U251 = settings: Homo sapiens, U-251; for activity at 10 µM: U251, single dose 10 μM, read-out: percent cell growth promotion
SK-MEL-28 = settings: Homo sapiens; for activity at 10 µM: SK-MEL-28, read-out: percent cell growth promotion
A549/ATCC = settings: Homo sapiens; for activity at 10 µM: single dose 10 μM, read-out: percent cell growth promotion
ACHN = settings: Homo sapiens; for activity at 10 µM: single dose 10 μM, read-out: percent cell growth promotion
HCT-15 = settings: Homo sapiens; for activity at 10 µM: HCT-15, single dose 10 μM, read-out: percent cell growth promotion
[1] = 5 log dose, 48 h, read-out: LC50 (the source's name)

Compound: O=C(Nc1ccc(Cl)cc1)Nc1ccc(Oc2nncc3ccccc23)cc1 [Compound 7b, 1–(4-Chlorophenyl)-3–(4-(phthalazin-1-yloxy)phenyl)urea]
- GI50 (UACC-257; UACC-257): 0.15 µM
- IC (TGI) (UACC-257; UACC-257, read-out: TGI): 4.04 µM
- activity at 10 µM (UACC-257): 34.4%
- CC50 (UACC-257; UACC-257, 5 log dose, 48 h, read-out: LC50 (the source's name)): 12.9 µM
- GI50 (SF-295; SF-295, 5 log dose): 2.54 µM
- IC (TGI) (SF-295; SF-295, 5 log dose): 6.27 µM
- CC50 (SF-295; SF-295, 5 log dose, 48 h, read-out: LC50 (the source's name)): 36.9 µM
- activity at 10 µM (SF-295): 40.7%
- GI50 (A498; A498, 5 log dose): 1.5 µM
- IC (TGI) (A498; A498, 5 log dose): 3.06 µM
- CC50 (A498; A498, 5 log dose, 48 h, read-out: LC50 (the source's name)): 6.26 µM
- activity at 10 µM (A498): 24.5%
- GI50 (HOP-62; HOP-62, 5 log dose): 1.09 µM
- IC (TGI) (HOP-62; HOP-62, 5 log dose): 4.32 µM
- CC50 (HOP-62; HOP-62, 5 log dose, 48 h, read-out: LC50 (the source's name)): 47.7 µM
- activity at 10 µM (HOP-62): 26.7%
- GI50 (HCT-116; HCT-116, 5 log dose): 0.32 µM
- IC (TGI) (HCT-116; HCT-116, 5 log dose): 1.2 µM
- LC50 (lethal concentration 50%) (HCT-116; HCT-116, 5 log dose, 48 h): 4.65 µM
- activity at 10 µM (HCT-116): -56.9%
- GI50 (OVCAR-5; OVCAR-5, 5 log dose): 1.89 µM
- IC (TGI) (OVCAR-5; OVCAR-5, 5 log dose): 4.47 µM
- CC50 (OVCAR-5; OVCAR-5, 5 log dose, 48 h, read-out: LC50 (the source's name)): 12.6 µM
- activity at 10 µM (OVCAR-5): -16%
- activity at 10 µM (MDA-MB-468): -76.2%
- GI50 (MDA-MB-468; MDA-MB-468, 5 log dose): 0.75 µM
- IC (TGI) (MDA-MB-468; MDA-MB-468, 5 log dose): 2.52 µM
- CC50 (MDA-MB-468; MDA-MB-468, 5 log dose, 48 h, read-out: LC50 (the source's name)): 7.18 µM
- GI50 (COLO 205; COLO 205, 5 log dose): 1.18 µM
- IC (TGI) (COLO 205; COLO 205, 5 log dose): 2.92 µM
- CC50 (COLO 205; COLO 205, 5 log dose, 48 h, read-out: LC50 (the source's name)): 7.21 µM
- activity at 10 µM (COLO 205): 11.9%
- GI50 (SF-268; SF-268, 5 log dose): 1.35 µM
- IC (TGI) (SF-268; SF-268, 5 log dose): 7.21 µM
- CC50 (SF-268; SF-268, 5 log dose, 48 h, read-out: LC50 (the source's name)): 70.2 µM
- activity at 10 µM (SF-268): 12.6%
- GI50 (SK-OV-3; SK-OV-3, 5 log dose): 1.74 µM
- IC (TGI) (SK-OV-3; SK-OV-3, 5 log dose): 5.48 µM
- CC50 (SK-OV-3; SK-OV-3, 5 log dose, 48 h, read-out: LC50 (the source's name)): 27.2 µM
- activity at 10 µM (SK-OV-3): 56.7%
- GI50 (MOLT-4; MOLT-4, 5 log dose): 0.37 µM
- IC (TGI) (MOLT-4; MOLT-4, 5 log dose): > 100 µM
- CC50 (MOLT-4; MOLT-4, 5 log dose, 48 h, read-out: LC50 (the source's name)): > 100 µM
- activity at 10 µM (MOLT-4): 3.99%
- GI50 (K-562; K-562, 5 log dose): 0.37 µM
- IC (TGI) (K-562; K-562, 5 log dose): > 100 µM
- CC50 (K-562; K-562, 5 log dose, 48 h, read-out: LC50 (the source's name)): > 100 µM
- activity at 10 µM (K-562): 5.58%
- GI50 (NCI-H23; NCI-H23, 5 log dose): 0.75 µM
- IC (TGI) (NCI-H23; NCI-H23, 5 log dose): 2.87 µM
- CC50 (NCI-H23; NCI-H23, 5 log dose, 48 h, read-out: LC50 (the source's name)): 9.61 µM
- activity at 10 µM (NCI-H23): 0.5%
- GI50 (NCI/ADR-RES; 5 log dose): 2.63 µM
- IC (TGI) (NCI/ADR-RES; 5 log dose): > 100 µM
- CC50 (NCI/ADR-RES; [1]): > 100 µM
- activity at 10 µM (NCI/ADR-RES): 37.6%
- GI50 (U251; U251, 5 log dose): 1.01 µM
- IC (TGI) (U251; U251, 5 log dose): 2.38 µM
- CC50 (U251; U251, 5 log dose, 48 h, read-out: LC50 (the source's name)): 5.61 µM
- activity at 10 µM (U251): -31.1%
- GI50 (SK-MEL-28; SK-MEL-28): 0.42 µM
- IC (TGI) (SK-MEL-28; SK-MEL-28, read-out: TGI): 1.65 µM
- activity at 10 µM (SK-MEL-28): -31.6%
- CC50 (SK-MEL-28; SK-MEL-28, 5 log dose, 48 h, read-out: LC50 (the source's name)): 5.33 µM
- GI50 (A549/ATCC; 5 log dose): 2.81 µM
- IC (TGI) (A549/ATCC; 5 log dose): 11.5 µM
- LC50 (concentration killing 50% of cells) (A549/ATCC; 5 log dose, 48 h): > 100 µM
- activity at 10 µM (A549/ATCC): 40%
- GI50 (ACHN; 5 log dose): 1.05 µM
- IC (TGI) (ACHN; 5 log dose): 2.33 µM
- CC50 (ACHN; [1]): 5.18 µM
- activity at 10 µM (ACHN): -15.1%
- GI50 (HCT-15; HCT-15, 5 log dose): 0.96 µM
- IC (TGI) (HCT-15; HCT-15, 5 log dose): 3.08 µM
- CC50 (HCT-15; HCT-15, 5 log dose, 48 h, read-out: LC50 (the source's name)): 9.67 µM
- activity at 10 µM (HCT-15): 2.76%

Compound: Cc1nnc(Oc2ccc(NC(=O)Nc3ccc(Cl)cc3)cc2)c2ccccc12 [Compound 7e, 1–(4-Chlorophenyl)-3–(4-(4-methylphthalazin-1-yloxy)phenyl)urea]
- activity at 10 µM (UACC-257): 83.9%
- activity at 10 µM (SF-295): 91.8%
- activity at 10 µM (A498): 51.5%
- activity at 10 µM (HOP-62): 71.1%
- activity at 10 µM (HCT-116): 72.5%
- activity at 10 µM (OVCAR-5): 119%
- activity at 10 µM (MDA-MB-468): 68.6%
- activity at 10 µM (COLO 205): 87.4%
- activity at 10 µM (SF-268): 70.5%
- activity at 10 µM (SK-OV-3): 69.5%
- activity at 10 µM (MOLT-4): 36.1%
- activity at 10 µM (K-562): 61.1%
- activity at 10 µM (NCI-H23): 84.9%
- activity at 10 µM (NCI/ADR-RES): 72.8%
- activity at 10 µM (U251): 60%
- activity at 10 µM (SK-MEL-28): 88.3%
- activity at 10 µM (A549/ATCC): 61.5%
- activity at 10 µM (ACHN): 80.7%
- activity at 10 µM (HCT-15): 69.5%

Compound: CCOC(=O)N1CCN(c2nncc3ccccc23)CC1 [Compound 8a, Ethyl 4-(phthalazin-1-yl)piperazine-1-carboxylate]
- activity at 10 µM (UACC-257): 95.8%
- activity at 10 µM (SF-295): 102%
- activity at 10 µM (A498): 105%
- activity at 10 µM (HOP-62): 107%
- activity at 10 µM (HCT-116): 99.1%
- activity at 10 µM (OVCAR-5): 128%
- activity at 10 µM (MDA-MB-468): 97.7%
- activity at 10 µM (COLO 205): 109%
- activity at 10 µM (SF-268): 104%
- activity at 10 µM (SK-OV-3): 105%
- activity at 10 µM (MOLT-4): 98.6%
- activity at 10 µM (K-562): 110%
- activity at 10 µM (NCI-H23): 105%
- activity at 10 µM (NCI/ADR-RES): 102%
- activity at 10 µM (U251): 99.3%
- activity at 10 µM (SK-MEL-28): 116%
- activity at 10 µM (A549/ATCC): 99.6%
- activity at 10 µM (ACHN): 115%
- activity at 10 µM (HCT-15): 111%
